Results: paper PMC3050703 (Cancer chemotherapy and pharmacology, 2010)
Where two headings read alike, the source gives them in different places.

Columns and labels:
[1] = Plasma pharmacokinetics in patients; type: in vivo, human; details: for clearance / half-life / Vd / Cmax: human, plasma, intravenous
advanced solid tumors = test: Anti-tumor activity per RECIST in patients; type: in vivo, human
Aurora kinase A = details: read-out: Ki Aurora kinase A; ref [3]; cited from earlier work
Abl = details: read-out: Ki Abl; ref [3]; cited from earlier work
T315I mutant Abl kinase = details: read-out: Ki T315I mutant Abl; ref [3]; cited from earlier work
MCF-7 cells = details: read-out: IC50 proliferation of transformed MCF-7 cells; ref [1]; cited from earlier work
[2] = test system: xenografts of leukemia, pancreatic cancer, and colon cancer; details: ref [1]; cited from earlier work
HCT116 colon cancer = details: ref [1], cited from earlier work
[3] = Dose Level 1 (4 mg/m^2/hr), N=1, any cycle, regardless of attribution
[4] = Dose Level 2 (8 mg/m^2/hr), N=2, any cycle, regardless of attribution
[5] = Dose Level 3 (16 mg/m^2/hr), N=2, any cycle, regardless of attribution
[6] = Dose Level 4 (32 mg/m^2/hr), N=3, any cycle, regardless of attribution
[7] = Dose Level 5 (45 mg/m^2/hr), N=4, any cycle, regardless of attribution
[8] = Dose Level 6 (64 mg/m^2/hr), N=2, any cycle
[9] = Dose Level 6 (64 mg/m^2/hr), N=2, any cycle, regardless of attribution
[10] = Dose Level 6 (oral 100 mg) (64 mg/m^2/hr), N=7, any cycle
[11] = Dose Level 6 (oral 100 mg) (64 mg/m^2/hr), N=7, any cycle, regardless of attribution
[12] = Dose Level 7 (96 mg/m^2/hr), N=6, any cycle
[13] = Dose Level 7 (96 mg/m^2/hr), N=6, any cycle, regardless of attribution

Compound: Cc1cc(Nc2cc(N3CCN(C)CC3)nc(Sc3ccc(NC(=O)C4CC4)cc3)n2)[nH]n1 [MK-0457]
- Total AUC ([1]; 24-hour CIV 16 mg/m^2/hr, N=1, cycle 1): 18.8 µM·h
- dose-adjusted AUC (average) ([1]; 24-hour CIV infusion): 0.0315 µM·h/mg
- clearance [1]: 900 to 2320 mL/min
- half-life [1]: 6.6 to 10.2 h
- Vd ([1]; 8 mg/m2): 735 L
- clearance ([1]; 8 mg/m2): 2320 mL/min
- half-life ([1]; 8 mg/m2): 9.3 h
- Cmax ([1]; 8 mg/m^2/hr): 274 nM
- Vd ([1]; 16 mg/m2): 514 L
- clearance ([1]; 16 mg/m2): 1690 mL/min
- half-life ([1]; 16 mg/m2): 8.5 h
- Cmax ([1]; 16 mg/m^2/hr): 911 nM
- Vd ([1]; 32 mg/m2): 328 L
- clearance ([1]; 32 mg/m2): 1160 mL/min
- half-life ([1]; 32 mg/m2): 10.2 h
- Cmax ([1]; 32 mg/m^2/hr): 2170 nM
- Vd ([1]; 45 mg/m2): 429 L
- clearance ([1]; 45 mg/m2): 1390 mL/min
- half-life ([1]; 45 mg/m2): 10.2 h
- Cmax ([1]; 45 mg/m^2/hr): 2670 nM
- Vd ([1]; 64 mg/m2): 301 L
- clearance ([1]; 64 mg/m2): 1270 mL/min
- half-life ([1]; 64 mg/m2): 8 h
- Cmax ([1]; 64 mg/m^2/hr): 4010 nM
- Vd ([1]; 96 mg/m2): 248 L
- clearance ([1]; 96 mg/m2): 893 mL/min
- half-life ([1]; 96 mg/m2): 6.6 h
- Cmax ([1]; 96 mg/m^2/hr): 7640 nM
- objective anti-tumor responses (RECIST) (advanced solid tumors; all dose levels): no objective anti-tumor responses
- patients with stable disease (2 or more cycles without progression) (advanced solid tumors; all dose levels): 12 patients
- dose limiting toxicity (96 mg/m^2/hr 24-hour CIV infusion (dose level 7)): grade 4 neutropenia and grade 3 herpes zoster
- maximum tolerated dose (MTD) (24-hour CIV infusion every 21 days, patients with advanced solid tumors): 64 mg/m^2/hr
- number of patients with Fatigue Grade 2 [3]: 1
- number of patients with Nausea Grade 3 [3]: 1
- number of patients with Vomiting Grade 3 [3]: 1
- number of patients with Arthralgia Grade 2 [4]: 1
- number of patients with Back pain Grade 2 [4]: 1
- number of patients with Fatigue Grade 2 [4]: 1
- number of patients with Hypoalbuminemia Grade 2 [4]: 1
- number of patients with Increased alk phos (alkaline phosphatase) Grade 2 [4]: 1
- number of patients with Urinary tract infection Grade 2 [4]: 1
- number of patients with Diarrhea Grade 2 [5]: 1
- number of patients with Nausea Grade 3 [5]: 1
- number of patients with Vomiting Grade 3 [5]: 1
- number of patients with Arthralgia Grade 2 [6]: 1
- number of patients with Diarrhea Grade 2 [6]: 1
- number of patients with Fatigue Grade 2 [6]: 1
- number of patients with Nausea Grade 2 [6]: 1
- number of patients with Vomiting (printed on the heading line, no grade) [6]: 1
- number of patients with Neutropenia Grade 3 (Dose Level 5 (45 mg/m^2/hr), N=4, any cycle): 1
- number of patients with Back pain Grade 2 [7]: 1
- number of patients with Dyspnea Grade 2 [7]: 1
- number of patients with Fatigue Grade 2 [7]: 2
- number of patients with Hypophosphatemia Grade 3 [7]: 1
- number of patients with Nausea Grade 2 [7]: 1
- number of patients with Vomiting (printed on the heading line, no grade) [7]: 1
- number of patients with Leukopenia Grade 3 [8]: 1
- number of patients with Neutropenia Grade 3 [8]: 1
- number of patients with Arthralgia Grade 2 [9]: 1
- number of patients with Fatigue Grade 3 [9]: 1
- number of patients with Hyperglycemia Grade 3 [9]: 1
- number of patients with Hypoalbuminemia Grade 2 [9]: 1
- number of patients with Hypophosphatemia Grade 2 [9]: 1
- number of patients with Urinary tract infection Grade 2 [9]: 1
- number of patients with Leukopenia Grade 3 [10]: 1
- number of patients with Neutropenia Grade 3 [10]: 1
- number of patients with Arthralgia Grade 4 [11]: 1
- number of patients with Back pain Grade 2 [11]: 1
- number of patients with Diarrhea Grade 3 [11]: 2
- number of patients with Dyspnea Grade 2 [11]: 2
- number of patients with Fatigue Grade 2 [11]: 5
- number of patients with Hyperglycemia Grade 2 [11]: 1
- number of patients with Hyperglycemia Grade 3 [11]: 1
- number of patients with Hypoalbuminemia Grade 2 [11]: 1
- number of patients with Hypophosphatemia Grade 2 [11]: 2
- number of patients with Hypophosphatemia Grade 3 [11]: 1
- number of patients with Nausea Grade 2 [11]: 2
- number of patients with Urinary tract infection Grade 2 [11]: 1
- number of patients with Vomiting Grade 3 [11]: 2
- number of patients with Anemia Grade 3 [12]: 1
- number of patients with Leukopenia Grade 3 [12]: 3
- number of patients with Neutropenia Grade 3 [12]: 1
- number of patients with Neutropenia Grade 4 [12]: 1
- number of patients with Diarrhea Grade 2 [13]: 1
- number of patients with Dyspnea Grade 3 [13]: 1
- number of patients with Fatigue Grade 2 [13]: 3
- number of patients with Hypoalbuminemia Grade 3 [13]: 1
- number of patients with Increased alk phos (alkaline phosphatase) Grade 2 [13]: 1
- number of patients with Urinary tract infection Grade 2 [13]: 1
- prolongation of the QTc (ECG pre-dose and after 24-hour infusion, cycle 1): not observed
- febrile neutropenia (all dose levels, any cycle): no cases
- patients with dose reduced due to toxicity (of 27 patients (11%)): Three
- patients with treatment delayed or dose reduced due to toxicity (of 27 patients (15%)): 4 patients
- patients with serious adverse events regardless of attribution (of 27 patients (33%), all dose levels): 9 patients
- deaths on study or within 30 days of follow-up (patients who received MK-0457): no deaths
- adverse events at least possibly related to study drug after oral dose (single 100 mg capsule, between oral dose and start of CIV infusion, 7 patients): No adverse events
- Ki (Abl): 30 nM
- Ki (T315I mutant Abl kinase): 42 nM
- IC50 (MCF-7 cells): 15 to 113 nM
- tumor response in nude mice xenografts [2]: marked tumor regression
- marked tumor regression, number of HCT116 nude rat models (HCT116 colon cancer): 4 of 7
